Measured values taken from publication PMC6934184, “Selective DNA-PKcs inhibition extends the therapeutic index of localized radiotherapy and chemotherapy” (The Journal of Clinical Investigation, 2019).

Target: T1, PDGFRA (PDGFR alpha) (Homo sapiens, UniProt P16234)
T1 construct: purchased Thermo Fisher Scientific (Life Technologies) SelectScreen
Experiment: SelectScreen Z'LYTE
Type: biochemical
Outline: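 NU5455 was profiled across the SelectScreen Broad panel of kinase activity and binding assays. Z'LYTE reactions such as CSF1R ran at apparent Km ATP, while the Adapta CAMK1 assay used ATP listed as 10. Values are given as percent.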

T1 sequence (P16234 24-1089): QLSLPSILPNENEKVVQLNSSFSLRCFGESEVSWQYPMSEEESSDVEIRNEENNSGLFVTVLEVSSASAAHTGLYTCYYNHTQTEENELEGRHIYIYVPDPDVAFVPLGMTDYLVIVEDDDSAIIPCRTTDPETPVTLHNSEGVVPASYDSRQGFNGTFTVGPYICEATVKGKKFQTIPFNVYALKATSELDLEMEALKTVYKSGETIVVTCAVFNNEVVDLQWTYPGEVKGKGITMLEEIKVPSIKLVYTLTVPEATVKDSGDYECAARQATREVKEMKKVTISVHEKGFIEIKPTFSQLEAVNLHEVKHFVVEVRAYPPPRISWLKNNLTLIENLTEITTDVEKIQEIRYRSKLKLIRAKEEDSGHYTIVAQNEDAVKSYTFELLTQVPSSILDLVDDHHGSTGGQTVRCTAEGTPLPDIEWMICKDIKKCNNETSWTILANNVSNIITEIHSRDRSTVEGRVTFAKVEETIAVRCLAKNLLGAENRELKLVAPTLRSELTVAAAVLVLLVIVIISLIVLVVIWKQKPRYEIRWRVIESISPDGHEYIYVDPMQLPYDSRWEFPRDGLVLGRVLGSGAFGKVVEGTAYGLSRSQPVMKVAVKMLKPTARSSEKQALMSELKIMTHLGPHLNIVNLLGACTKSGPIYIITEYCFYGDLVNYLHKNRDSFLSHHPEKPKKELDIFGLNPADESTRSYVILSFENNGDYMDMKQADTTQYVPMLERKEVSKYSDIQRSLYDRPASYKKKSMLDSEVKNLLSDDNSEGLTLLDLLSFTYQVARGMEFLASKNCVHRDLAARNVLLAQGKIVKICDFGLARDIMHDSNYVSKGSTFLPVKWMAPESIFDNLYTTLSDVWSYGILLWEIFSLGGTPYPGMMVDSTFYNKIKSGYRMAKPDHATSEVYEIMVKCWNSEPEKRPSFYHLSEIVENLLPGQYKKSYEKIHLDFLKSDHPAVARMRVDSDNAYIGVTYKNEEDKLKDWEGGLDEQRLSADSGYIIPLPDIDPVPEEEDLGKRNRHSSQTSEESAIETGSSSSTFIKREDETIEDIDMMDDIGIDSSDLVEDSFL

`CN(C(=O)CN1CCOCC1)c1ccc2sc3c(-c4cccc5c(=O)cc(N6CC7CCC(C6)O7)oc45)cccc3c2c1` [NU5455] was tested. Which inhibition at 1 µM did it give?
Its inhibition at 1 µM is -6.8%.
